# Source: the OPERA property sets (Mansouri et al. 2018)
row,Compound,logP
1,CC(C)(C)NCC(O)COCc1ccccc1 (stereo not given),1.7
2,CC(C)C(=O)NCCNCC(O)COCCOc1ccccc1 (stereo not given),0.48
3,CC(C)(C)NCC(O)COC1CCCc2ccccc21 (stereo not given),3.55
4,O=C(Cc1ccccc1)NCCNCC(O)COCCc1ccccc1 (stereo not given),1.24
5,O=C(Cc1ccccc1)NCCNCC(O)COCCOc1ccccc1 (stereo not given),0.75
6,CC(C)C(=O)NCCNCC(O)COc1ccccc1 (stereo not given),1.14
7,CC(C)NCC(O)COCCOc1ccccc1 (stereo not given),1.63
8,CC(C)(C)NCC(O)COCCOc1ccccc1 (stereo not given),2.35
9,CC(C)(C)NCC(O)COCCc1ccccc1 (stereo not given),2.52
10,O=C(Cc1ccccc1)NCCNCC(O)OCc1ccccc1 (stereo not given),1.05
11,CC(C)C(=O)NCCNCC(O)COCC=Cc1ccccc1 (stereo not given),0.51
12,CC(C)C(=O)NCCNCC(O)COCCc1ccccc1 (stereo not given),0.95
13,O=C(Cc1ccccc1)NCCNCC(O)COC1CCCc2ccccc21 (stereo not given),1.68
14,CC(C)NCC(O)COCC=Cc1ccccc1 (stereo not given),2.15
15,O=C(Cc1ccccc1)NCCNCC(O)COCCCc1ccccc1 (stereo not given),1.62

# Further lines, results first:
row,logP,Compound
1,1.76,O=C(Cc1ccccc1)NCCNCC(O)COCC=Cc1ccccc1 (stereo not given)
2,1.5,CC(C)(C)NCC(O)COc1ccccc1 (stereo not given)
3,1.25,CC(C)C(=O)NCCNCC(O)COCCCc1ccccc1 (stereo not given)
4,1.76,CC(C)NCC(O)COCCc1ccccc1 (stereo not given)
5,1.99,CC(C)C(=O)NCCNCC(O)COC1CCCc2ccccc21 (stereo not given)
6,2.29,CC(C)(C)NCC(O)COCC=Cc1ccccc1 (stereo not given)
7,2.95,CC(C)NCC(O)COCCCC(C)c1ccccc1 (stereo not given)
8,0.63,O=C(Cc1ccccc1)NCCNCC(O)COc1ccccc1 (stereo not given)
9,0.63,CC(C)C(=O)NCCNCC(O)COCc1ccccc1 (stereo not given)
10,1.62,CC(C)NCC(O)COCc1ccccc1 (stereo not given)
